Measured values reported in US20250230193A1, “CYCLIC COMPOUND HAVING SELECTIVE KRAS INHIBITORY EFFECT ON HRAS AND NRAS” (CHUGAI SEIYAKU KABUSHIKI KAISHA, priority 2022, published 2025).

Assays:
[1] = target: GDP-bound NRAS wild-type protein (Homo sapiens, UniProt P01111); assay: Binding to NRAS by surface plasmon resonance (SPR), Single Cycle Kinetics; settings: KD ratio NRAS/KRAS, class symbols
[2] = target: GDP-bound HRAS wild-type protein (Homo sapiens, UniProt P01112); assay: Binding to HRAS by surface plasmon resonance (SPR), Single Cycle Kinetics; settings: KD ratio HRAS/KRAS, class symbols
GDP-bound HRAS wild-type protein, sequence (P01112 whole entry): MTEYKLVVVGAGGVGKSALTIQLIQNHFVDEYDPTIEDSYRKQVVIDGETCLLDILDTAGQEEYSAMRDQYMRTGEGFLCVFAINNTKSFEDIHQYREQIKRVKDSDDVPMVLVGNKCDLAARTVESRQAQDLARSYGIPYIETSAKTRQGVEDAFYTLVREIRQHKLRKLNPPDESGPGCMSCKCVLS

GDP-bound NRAS wild-type protein, sequence (P01111 whole entry): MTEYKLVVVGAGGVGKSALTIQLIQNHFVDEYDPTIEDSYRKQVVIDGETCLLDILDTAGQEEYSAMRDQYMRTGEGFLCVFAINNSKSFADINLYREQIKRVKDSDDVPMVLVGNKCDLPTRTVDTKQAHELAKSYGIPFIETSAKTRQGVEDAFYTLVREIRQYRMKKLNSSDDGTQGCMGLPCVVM

Row | Compound | NRAS/KRAS (ratio of KD value with respect to GDP-bound NRAS wild-type protein to KD value with respect to KRAS) [1] | HRAS/KRAS (ratio of KD value with respect to GDP-bound HRAS wild-type protein to KD value with respect to KRAS) [2]
1 | CC[C@H](C)[C@@H]1NC(=O)[C@H](COC)N(C)C(=O)C[C@@H](C(=O)N(C)C)N(C)C(=O)[C@H](C2CCCCC2)N(C)C(=O)C2(CC(C)(C)C2)NC(=O)[C@@H]2C[C@@H](OC(C)C)CN2C(=O)[C@H](CCc2cc(F)c(C(F)(F)F)c(F)c2)NC(=O)CN(C)C(=O)[C@H](Cc2ccc(C)cc2)N2CC/C=C\C[C@@H](C2=O)N(C)C(=O)CN(C)C1=O [PP2660] | A (a compound having 10 or more and less than 20 is denoted as A) | A (a compound having 10 or more and less than 20 is denoted as A)
2 | CCO[C@@H]1C[C@H]2C(=O)NC3(CC(C)(C)C3)C(=O)N(C)[C@@H](C3CCCCC3)C(=O)N(C)[C@H](C(=O)N(C)C)CC(=O)N(C)[C@@H](COC)C(=O)N[C@@H]([C@@H](C)CC)C(=O)N(C)CC(=O)N(C)[C@H]3C/C=C\CCN(C3=O)[C@@H](Cc3ccc(C(F)(F)F)cc3)C(=O)N(C)CC(=O)N[C@@H](CCc3ccc(Cl)c(Cl)c3)C(=O)N2C1 [PP2661] | AA (a compound having 20 or more is denoted as AA) | A (a compound having 10 or more and less than 20 is denoted as A)
3 | CC[C@H](C)[C@@H]1NC(=O)[C@H](COC)N(C)C(=O)C[C@@H](C(=O)N(C)C)N(C)C(=O)[C@H](C2CCCCC2)N(C)C(=O)C2(CC(C)(C)C2)NC(=O)[C@@H]2C[C@@H](OC(C)C)CN2C(=O)[C@H](CCc2ccc(Cl)c(Cl)c2)NC(=O)CN(C)C(=O)[C@H](Cc2ccc(C(F)(F)F)cc2)N2CC/C=C\C[C@@H](C2=O)N(C)C(=O)CN(C)C1=O [PP2662] | AA (a compound having 20 or more is denoted as AA) | A (a compound having 10 or more and less than 20 is denoted as A)
4 | CC[C@H](C)[C@@H]1NC(=O)[C@H](COC)N(C)C(=O)C[C@@H](C(=O)N2CCCCC2)N(C)C(=O)[C@H](C2CCCC2)N(C)C(=O)C2(CC(C)(C)C2)NC(=O)[C@@H]2C[C@@H](OC3CCC3)CN2C(=O)[C@H](CCc2cc(F)c(C(F)(F)F)c(F)c2)NC(=O)CN(C)C(=O)[C@H](Cc2ccc(C(F)(F)F)cc2)N2CC/C=C\C[C@@H](C2=O)N(C)C(=O)CN(C)C1=O [PP2664] | A (a compound having 10 or more and less than 20 is denoted as A) | B (a compound having 3 or more and less than 10 is denoted as B)
5 | CC[C@H](C)[C@@H]1NC(=O)[C@H](COC)N(C)C(=O)C[C@@H](C(=O)N2CCCCC2)N(C)C(=O)[C@H](C2CCCC2)N(C)C(=O)C2(CC(C)(C)C2)NC(=O)[C@@H]2C[C@@H](OC3CCCC3)CN2C(=O)[C@H](CCc2cc(F)c(C(F)(F)F)c(F)c2)NC(=O)CN(C)C(=O)[C@H](Cc2ccc(C(F)(F)F)cc2)N2CC/C=C\C[C@@H](C2=O)N(C)C(=O)CN(C)C1=O [PP2665] | A (a compound having 10 or more and less than 20 is denoted as A) | A (a compound having 10 or more and less than 20 is denoted as A)
6 | CCO[C@@H]1C[C@H]2C(=O)NC3(CC(C)(C)C3)C(=O)N(C)[C@@H](C3CCCC3)C(=O)N(C)[C@H](C(=O)N3CCCCC3)CC(=O)N(C)[C@@H](COC)C(=O)N[C@@H]([C@@H](C)CC)C(=O)N(C3CC3)CC(=O)N(C)[C@H]3C/C=C\CCN(C3=O)[C@@H](Cc3ccc(C(F)(F)F)cc3)C(=O)N(C)CC(=O)N[C@@H](CCc3cc(F)c(C(F)(F)F)c(F)c3)C(=O)N2C1 [PP2666] | AA (a compound having 20 or more is denoted as AA) | AA (a compound having 20 or more is denoted as AA)
7 | CC[C@H](C)[C@@H]1NC(=O)[C@H](COC)N(C)C(=O)C[C@@H](C(=O)N2CCCCC2)N(C)C(=O)[C@H](C2CCCC2)N(C)C(=O)C2(CC(C)(C)C2)NC(=O)[C@@H]2C[C@@H](OC(C)C)CN2C(=O)[C@H](CCc2cc(F)c(C(F)(F)F)c(F)c2)NC(=O)CN(C)C(=O)[C@H](Cc2ccc(C(F)(F)F)cc2)N2CC/C=C\C[C@@H](C2=O)N(C)C(=O)CN(C2CC2)C1=O [PP2667] | A (a compound having 10 or more and less than 20 is denoted as A) | A (a compound having 10 or more and less than 20 is denoted as A)
8 | CCO[C@@H]1C[C@H]2C(=O)NC3(CC(C)(C)C3)C(=O)N(C)[C@@H](C3CCCC3)C(=O)N(C)[C@H](C(=O)N3CCCCC3)CC(=O)N(C)[C@@H](COC)C(=O)N[C@@H]([C@@H](C)CC)C(=O)N(C)CC(=O)N(C)[C@H]3C/C=C\CCN(C3=O)[C@@H](Cc3ccc(C)cc3)C(=O)N(C)CC(=O)N[C@@H](CCc3cc(F)c(C(F)(F)F)c(F)c3)C(=O)N2C1 [PP2668] | A (a compound having 10 or more and less than 20 is denoted as A) | A (a compound having 10 or more and less than 20 is denoted as A)
9 | CC[C@H](C)[C@@H]1NC(=O)[C@H](COC)N(C)C(=O)C[C@@H](C(=O)N2CCCCC2)N(C)C(=O)[C@H](C2CCCC2)N(C)C(=O)C2(CC(C)(C)C2)NC(=O)[C@@H]2C[C@@H](OC(C)C)CN2C(=O)[C@H](CCc2cc(F)c(C(F)(F)F)c(F)c2)NC(=O)CN(C)C(=O)[C@H](Cc2ccc(C)cc2)N2CC/C=C\C[C@@H](C2=O)N(C)C(=O)CN(C)C1=O [PP2669] | A (a compound having 10 or more and less than 20 is denoted as A) | A (a compound having 10 or more and less than 20 is denoted as A)
10 | CCO[C@@H]1C[C@H]2C(=O)NC3(CC(C)(C)C3)C(=O)N(C)[C@@H](C3CCCC3)C(=O)N(C)[C@H](C(=O)N3CCCCC3)CC(=O)N(C)[C@@H](COC)C(=O)N[C@@H]([C@@H](C)CC)C(=O)N(C)CC(=O)N(C)[C@H]3C/C=C\CCN(C3=O)[C@@H](Cc3ccc(C(F)(F)F)cc3)C(=O)N(C)CC(=O)N[C@@H](CCc3ccc(Cl)c(Cl)c3)C(=O)N2C1 [PP2670] | AA (a compound having 20 or more is denoted as AA) | A (a compound having 10 or more and less than 20 is denoted as A)
11 | CC[C@H](C)[C@@H]1NC(=O)[C@H](COC)N(C)C(=O)C[C@@H](C(=O)N2CCCCC2)N(C)C(=O)[C@H](C2CCCC2)N(C)C(=O)C2(CC(C)(C)C2)NC(=O)[C@@H]2C[C@@H](OC(C)C)CN2C(=O)[C@H](CCc2ccc(Cl)c(Cl)c2)NC(=O)CN(C)C(=O)[C@H](Cc2ccc(C(F)(F)F)cc2)N2CC/C=C\C[C@@H](C2=O)N(C)C(=O)CN(C)C1=O [PP2671] | A (a compound having 10 or more and less than 20 is denoted as A) | A (a compound having 10 or more and less than 20 is denoted as A)
12 | CCO[C@@H]1C[C@H]2C(=O)NC3(CCC3)C(=O)N(C)[C@@H](C3CCCC3)C(=O)N(C)[C@H](C(=O)N(C)C)CC(=O)N(C)[C@@H](CC3CCCC3)C(=O)N[C@@H]([C@@H](C)CC)C(=O)N(C)CC(=O)N(C)[C@H]3C/C=C\CCN(C3=O)[C@@H](Cc3ccc(C)cc3)C(=O)N(C)CC(=O)N[C@@H](CCc3ccc(C(F)(F)F)c(CC)c3)C(=O)N2C1 [PP2672] | B (a compound having 3 or more and less than 10 is denoted as B) | B (a compound having 3 or more and less than 10 is denoted as B)
13 | CCO[C@@H]1C[C@H]2C(=O)NC3(CCC3)C(=O)N(C)[C@@H](C3CCCC3)C(=O)N(C)[C@H](C(=O)N(C)C)CC(=O)N(C)[C@@H](CC3CCCC3)C(=O)N[C@@H]([C@@H](C)CC)C(=O)N(C)CC(=O)N(C)[C@H]3C/C=C\CCN(C3=O)[C@@H](Cc3ccc(C)cc3)C(=O)N(C)CC(=O)N[C@@H](CCc3cc(F)c(CC)c(OC)c3)C(=O)N2C1 [PP2674] | A (a compound having 10 or more and less than 20 is denoted as A) | A (a compound having 10 or more and less than 20 is denoted as A)
14 | CCO[C@@H]1C[C@H]2C(=O)NC3(CCC3)C(=O)N(C)[C@@H](C3CCCC3)C(=O)N(C)[C@H](C(=O)N(C)C)CC(=O)N(C)[C@@H](CC3CCCC3)C(=O)N[C@@H]([C@@H](C)CC)C(=O)N(C)CC(=O)N(C)[C@H]3C/C=C\CCN(C3=O)[C@@H](Cc3ccc(C)cc3)C(=O)N(C)CC(=O)N[C@@H](CCc3cc(C)c(C(F)F)c(C)c3)C(=O)N2C1 [PP2675] | A (a compound having 10 or more and less than 20 is denoted as A) | A (a compound having 10 or more and less than 20 is denoted as A)
15 | CCO[C@@H]1C[C@H]2C(=O)NC3(CCC3)C(=O)N(C)[C@@H](C3CCCC3)C(=O)N(C)[C@H](C(=O)N(C)C)CC(=O)N(C)[C@@H](CC3CCCC3)C(=O)N[C@@H]([C@@H](C)CC)C(=O)N(C)CC(=O)N(C)[C@H]3C/C=C\CCN(C3=O)[C@@H](Cc3ccc(C)cc3)C(=O)N(C)CC(=O)N[C@@H](CCc3cc(C)c(C(F)F)c(F)c3)C(=O)N2C1 [PP2676] | A (a compound having 10 or more and less than 20 is denoted as A) | A (a compound having 10 or more and less than 20 is denoted as A)
